This is an account of results in patent US20050054006A1, “Combinatorial fluorescent library based on the styryl scaffold” (New York University, priority 2003, published 2005).

Molecules are shown by their SMILES. Where “and” joins values, the source holds several entries; their conditions need not be identical. Identical values can stand only once. Entries after “also recorded” stand apart in the source; their conditions may differ.

In data set [1] the test system is UACC-62 human melanoma cells. The data set is described as follows: Organelle localization in live cells by fluorescence microscopy. The conditions noted are these: live UACC-62 cells, fluorescence microscope λex=405, 490, 570 nm; λem>510 nm.
Data set [2] can be described thus: Fluorescence excitation/emission of the styryl dye library compounds. It is filed as physicochemical.

Consider `COc1ccccc1C=Cc1ccc2ccccc2[n+]1C.[I-]` [Compound H9], for which the LOCALIZATION result in data set [1] is given as “MITO”. The “EM(nm)” value in data set [2] (EX/EM peak no. 1) is listed as 650 nm.
With `COc1ccc(C=Cc2ccc3ccccc3[n+]2C)cc1.[I-]` [Compound H10], in data set [1], the LOCALIZATION entry is “MITO”. Further, in data set [2] (EX/EM peak no. 1), the “EM(nm)” value came to 650 nm and the “EX(nm)” value came out at 530 nm.
In the same order, the values of `C[n+]1c(C=Cc2ccc(OCc3ccccc3)c(OCc3ccccc3)c2)ccc2ccccc21.[I-]` [Compound H12] are “VESICLE”, 560 nm and 430 nm.
For `COc1ccc(C=Cc2ccc3ccccc3[n+]2C)c2ccccc12.[I-]` [Compound H14] the same measures were “VESICLE”, 590 nm and 420-520 nm.
Regarding `COc1ccc(C=Cc2ccc3ccccc3[n+]2C)cc1O.[I-]` [Compound H15], the LOCALIZATION result in data set [1] was “MITO”. For the same compound, in data set [2] (EX/EM peak no. 1), the “EM(nm)” value is 610-620 nm and the “EX(nm)” value amounted to 420 nm.
In the same order, the values of `C[n+]1c(C=Cc2ccc(O)cc2)ccc2ccccc21.[I-]` [Compound H16] are “NUCLEOLI”, 630 nm and 450 nm.
On to `C[n+]1c(C=Cc2ccc(-c3ccccc3)cc2)ccc2ccccc21.[I-]` [Compound H17], for which the LOCALIZATION entry in data set [1] was “VESICLE; also recorded: NUCLEOLI”. Further, in data set [2] (EX/EM peak no. 1), the “EM(nm)” value was 650 nm and the “EX(nm)” value is reported as 430 nm. Moreover, in data set [2] (EX/EM peak no. 2), the “EM(nm)” value was 540 nm and the “EX(nm)” value is on record as 420 nm.
Consider `CC(=O)Nc1ccc(C=Cc2ccc3ccccc3[n+]2C)cc1.[I-]` [Compound H18], for which, in data set [1], the LOCALIZATION entry is “MITO and NUCLEOLI”. In data set [2] (EX/EM peak no. 1), the “EM(nm)” value is given as 650 nm and the “EX(nm)” value was 430 nm.
For the compound `CN(C)c1ccc(/C=C/c2ccc3ccccc3[n+]2C)cc1.[I-]` [Compound H19], the LOCALIZATION entry in data set [1] is reported as “NUCLEOLI”. For the same compound, in data set [2] (EX/EM peak no. 1), the “EM(nm)” value was 640 nm and the “EX(nm)” value is 490(broad) nm.
Turning to `C[n+]1c(C=Cc2ccccc2[N+](=O)[O-])ccc2ccccc21.[I-]` [Compound H20], the LOCALIZATION entry in data set [1] was “NUCLEOLI”. In addition, the “EM(nm)” value in data set [2] (EX/EM peak no. 1) is given as 620 nm.
On to `C[n+]1c(C=Cc2cccc([N+](=O)[O-])c2)ccc2ccccc21.[I-]` [Compound H21], for which, in data set [1], the LOCALIZATION entry was “MITO and NUCLEOLI”. In data set [2] (EX/EM peak no. 1), the “EM(nm)” value came to 630 nm and the “EX(nm)” value was 420-550 nm.
As to `COc1ccc2ccccc2c1C=Cc1ccc2ccccc2[n+]1C.[I-]` [Compound H23], in data set [1], the LOCALIZATION entry was “VESICLE; also recorded: NUCLEOLI”. Besides, in data set [2] (EX/EM peak no. 1), the “EM(nm)” value turned out to be 580 nm and the “EX(nm)” value is 420-480 nm.
Consider `C[n+]1c(C=Cc2c[nH]c3ccccc23)ccc2ccccc21.[I-]` [Compound H24], for which the LOCALIZATION entry in data set [1] was “CYTO”. Also, in data set [2] (EX/EM peak no. 1), the “EM(nm)” value is reported as 560 nm and the “EX(nm)” value is reported as 400-500 nm.
In the same order, the values of `CN(C)c1ccc(C=Cc2ccc3ccccc3[n+]2C)c2ccccc12.[I-]` [Compound H27] are “MITO”, 620 nm and 500(broad) nm.
As for `C[n+]1c(C=Cc2ccc3c(c2)Cc2ccccc2-3)ccc2ccccc21.[I-]` [Compound H28], in data set [1], the LOCALIZATION result was “NUCLEI”. In addition, in data set [2] (EX/EM peak no. 1), the “EM(nm)” value is on record as 660 nm and the “EX(nm)” value was 350-500 nm.
For the compound `C[n+]1c(/C=C/c2c(F)c(F)c(F)c(F)c2F)ccc2ccccc21.[I-]` [Compound H31], the LOCALIZATION entry in data set [1] was “MITO and NUCLEI”. In data set [2] (EX/EM peak no. 1), the “EM(nm)” value stood at 610 nm and the “EX(nm)” value stood at 420 nm.
Consider `C[n+]1c(C=Cc2cccc3ccccc23)ccc2ccccc21.[I-]` [Compound H32], for which the LOCALIZATION entry in data set [1] was “MITO and NUCLEOLI”. In data set [2] (EX/EM peak no. 1), the “EM(nm)” value worked out at 660 nm and the “EX(nm)” value is recorded as 420 nm.
For the compound `C[n+]1c(C=Cc2ccc3ccccc3c2)ccc2ccccc21.[I-]` [Compound H33], the LOCALIZATION result in data set [1] was “MITO and NUCLEI and CYTO and VESICLE”. For the same compound, in data set [2] (EX/EM peak no. 1), the “EM(nm)” value came out at 620 nm and the “EX(nm)” value is recorded as 340-460 nm.
Take `C[n+]1c(C=Cc2ccc3c(c2)OCO3)ccc2ccccc21.[I-]` [Compound H39]: in data set [1], the LOCALIZATION entry is listed as “CYTO”. Further, in data set [2] (EX/EM peak no. 1), the “EM(nm)” value is 670 nm and 560 nm; the “EX(nm)” value was 530 nm and 430(broad) nm.
With `COc1ccc2c(ccc(C=CCc3ccccc3)[n+]2C)c1.[I-]` [Compound I1], the LOCALIZATION entry in data set [1] was “MITO”. Moreover, in data set [2] (EX/EM peak no. 1), the “EM(nm)” value is on record as 630 nm and the “EX(nm)” value is 460 nm.
In the same order, the values of `COc1ccc2c(ccc(C=Cc3ccccc3Br)[n+]2C)c1.[I-]` [Compound I3] are “MITO”, 640 nm and 480 nm.
As for `COc1ccc2c(ccc(C=Cc3cccc(Br)c3)[n+]2C)c1.[I-]` [Compound I4], the LOCALIZATION entry in data set [1] is recorded as “GRANULE”. Also, in data set [2] (EX/EM peak no. 1), the “EM(nm)” value is listed as 620 nm and the “EX(nm)” value was 400(broad) nm.
With `COc1ccc(C=Cc2ccc3cc(OC)ccc3[n+]2C)cc1.[I-]` [Compound I10], the LOCALIZATION result in data set [1] was “CYTO and VESICLE”. The “EM(nm)” value in data set [2] (EX/EM peak no. 1) is 520 nm; in data set [2] (EX/EM peak no. 2), 640 nm.
With `COc1ccc2c(ccc(C=Cc3ccc(OCc4ccccc4)c(OCc4ccccc4)c3)[n+]2C)c1.[I-]` [Compound I12], the LOCALIZATION result in data set [1] is “VESICLE”. The “EM(nm)” value in data set [2] (EX/EM peak no. 1) turned out to be 560 nm.
On to `COc1ccc2c(ccc(C=Cc3ccc(OC)c4ccccc34)[n+]2C)c1.[I-]` [Compound I14], for which the LOCALIZATION result in data set [1] is given as “VESICLE”. Besides, in data set [2] (EX/EM peak no. 1), the “EM(nm)” value was 580-590 nm and the “EX(nm)” value is listed as 460 nm.
In the case of `COc1ccc2c(ccc(C=Cc3ccc(O)cc3)[n+]2C)c1.[I-]` [Compound I16], in data set [1], the LOCALIZATION result is “VESICLE; also recorded: NUCLEOLI”. Besides, the “EX(nm)” value in data set [2] (EX/EM peak no. 1) was determined as 360 nm. In data set [2] (EX/EM peak no. 2), the “EM(nm)” value is listed as 610 nm and the “EX(nm)” value is 360-460 nm.
For `COc1ccc2c(ccc(C=Cc3ccc(-c4ccccc4)cc3)[n+]2C)c1.[I-]` [Compound I17], in data set [1], the LOCALIZATION result is “VESICLE”. Moreover, the “EM(nm)” value in data set [2] (EX/EM peak no. 1) is 510 nm.
In the case of `COc1ccc2c(ccc(/C=C/c3ccc(NC(C)=O)cc3)[n+]2C)c1.[I-]` [Compound I18], the LOCALIZATION result in data set [1] is on record as “NUCLEOLI”. In data set [2] (EX/EM peak no. 1), the “EM(nm)” value was 650 nm and the “EX(nm)” value is reported as 430(broad) nm.
Regarding `COc1ccc2c(ccc(C=Cc3ccc(N(C)C)cc3)[n+]2C)c1.[I-]` [Compound I19], the LOCALIZATION entry in data set [1] was “NUCLEOLI”. In data set [2] (EX/EM peak no. 1), the “EM(nm)” value turned out to be 630 nm.
On to `COc1ccc2c(ccc(C=Cc3ccccc3[N+](=O)[O-])[n+]2C)c1.[I-]` [Compound I20], for which, in data set [1], the LOCALIZATION result was “NUCLEOLI”. Also, in data set [2] (EX/EM peak no. 1), the “EM(nm)” value was 620 nm and the “EX(nm)” value was 420(broad) nm.
Turning to `COc1ccc2c(ccc(C=Cc3cccc([N+](=O)[O-])c3)[n+]2C)c1.[I-]` [Compound I21], the LOCALIZATION entry in data set [1] is “VESICLE; also recorded: NUCLEOLI”. For the same compound, in data set [2] (EX/EM peak no. 1), the “EM(nm)” value came out at 620 nm and the “EX(nm)” value came to 390 nm.
In the same order, the values of `COc1ccc2c(ccc(C=Cc3ccc(N(C)C)c4ccccc34)[n+]2C)c1.[I-]` [Compound I27] are “NUCLEOLI”, 630-660 nm and 420 nm.
